The nature of experiment [1]: NIH3T3 cell viability loss – ATP luminescence, mouse fibroblasts, counter-screen, dose response (AID 2010).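 Note: cells exposed to compound for about 90 hours before reading.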 In kind it is functional, cell-based. In general terms: Counterscreens check selectivity or assay interference.
The nature of experiment [2]: Trypanosoma cruzi growth suppression in host cells – NIH3T3 host cells, beta-gal luminescence, confirmation (AID 2044).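 Note: intracellular parasites grown in NIH/3T3 mouse fibroblasts as host cells; luminescent beta-galactosidase reporter signal from transgenic T. cruzi replicating inside host cells; inhibitors lower the luminescence signal.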 Type of experiment: functional, cell-based.
A further experiment has as its system INS1. The experiment in a line: INS-1E survival protection against cytokine death – cell-based, luminescence, retest, dose response (AID 449756).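 Note: cell death triggered by IL-1 beta plus TNF-alpha plus IFN-gamma mixture; protective hits raise ATP signal compared with cytokine alone wells.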 Type of experiment: functional. Conditions: Rattus norvegicus.
The test system of the next experiment is Streptococcus. Description: GAS UMAA2166 growth inhibition – luminescence, BacTiterGlo, counter-screen for streptokinase expression inhibitor project, dose response (AID 1915).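 Note: potency for reduction of bacterial viability or growth.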 Type of experiment: functional, organism-based.
In experiment [3] the test system is Streptococcus sp. 'group A'. Description: Streptococcus pyogenes SK(-)GAS viability under kanamycin – luminescence, BacTiterGlo, confirmation, counter-screen for streptokinase expression inhibitor project, dose response (AID 1900). Type of experiment: functional, organism-based.
Experiment [4] in a line: Luminescence Cell-Based Dose Retest to Confirm Inhibitors of Cancer Stem Cells. [Related pubchem assays (depositor defined):AID2717, AID2721]. In kind it is functional. Conditions: Homo sapiens.
The target in another experiment is T1, Protein RecA (Mycobacterium tuberculosis, UniProt P9WHJ3).
T1 sequence (P9WHJ3 whole entry): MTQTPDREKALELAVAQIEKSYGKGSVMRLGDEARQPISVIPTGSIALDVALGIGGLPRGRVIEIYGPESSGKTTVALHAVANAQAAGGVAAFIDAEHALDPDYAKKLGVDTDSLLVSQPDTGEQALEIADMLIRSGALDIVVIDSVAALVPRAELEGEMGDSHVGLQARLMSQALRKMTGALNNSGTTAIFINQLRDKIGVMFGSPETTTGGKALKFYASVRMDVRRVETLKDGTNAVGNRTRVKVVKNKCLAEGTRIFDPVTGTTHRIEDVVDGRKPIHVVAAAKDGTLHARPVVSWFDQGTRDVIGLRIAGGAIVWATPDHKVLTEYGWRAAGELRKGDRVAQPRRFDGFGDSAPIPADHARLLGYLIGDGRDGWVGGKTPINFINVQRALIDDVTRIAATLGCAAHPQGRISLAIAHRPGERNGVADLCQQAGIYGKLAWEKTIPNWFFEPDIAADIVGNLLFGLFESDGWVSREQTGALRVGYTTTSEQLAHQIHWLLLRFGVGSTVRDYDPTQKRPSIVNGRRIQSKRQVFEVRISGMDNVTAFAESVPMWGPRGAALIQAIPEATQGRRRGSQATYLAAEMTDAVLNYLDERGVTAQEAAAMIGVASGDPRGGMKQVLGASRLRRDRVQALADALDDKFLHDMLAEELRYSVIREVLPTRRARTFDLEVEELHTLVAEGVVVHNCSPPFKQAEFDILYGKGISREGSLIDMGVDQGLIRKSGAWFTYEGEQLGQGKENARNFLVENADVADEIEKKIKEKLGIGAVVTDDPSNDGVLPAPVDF
The experiment in a line: Fluorescence Cell-Free Homogeneous Dose Retest to Identify Inhibitors of RecA-Intein Splicing Activity. [Related pubchem assays (depositor defined):AID2097, AID2223, AID489010, AID492950]. Type of experiment: functional.

Experiment [5] addresses T2, Replicative DNA helicase DnaB (Mycobacterium tuberculosis, UniProt P9WMR3).
T2 sequence (P9WMR3 whole entry): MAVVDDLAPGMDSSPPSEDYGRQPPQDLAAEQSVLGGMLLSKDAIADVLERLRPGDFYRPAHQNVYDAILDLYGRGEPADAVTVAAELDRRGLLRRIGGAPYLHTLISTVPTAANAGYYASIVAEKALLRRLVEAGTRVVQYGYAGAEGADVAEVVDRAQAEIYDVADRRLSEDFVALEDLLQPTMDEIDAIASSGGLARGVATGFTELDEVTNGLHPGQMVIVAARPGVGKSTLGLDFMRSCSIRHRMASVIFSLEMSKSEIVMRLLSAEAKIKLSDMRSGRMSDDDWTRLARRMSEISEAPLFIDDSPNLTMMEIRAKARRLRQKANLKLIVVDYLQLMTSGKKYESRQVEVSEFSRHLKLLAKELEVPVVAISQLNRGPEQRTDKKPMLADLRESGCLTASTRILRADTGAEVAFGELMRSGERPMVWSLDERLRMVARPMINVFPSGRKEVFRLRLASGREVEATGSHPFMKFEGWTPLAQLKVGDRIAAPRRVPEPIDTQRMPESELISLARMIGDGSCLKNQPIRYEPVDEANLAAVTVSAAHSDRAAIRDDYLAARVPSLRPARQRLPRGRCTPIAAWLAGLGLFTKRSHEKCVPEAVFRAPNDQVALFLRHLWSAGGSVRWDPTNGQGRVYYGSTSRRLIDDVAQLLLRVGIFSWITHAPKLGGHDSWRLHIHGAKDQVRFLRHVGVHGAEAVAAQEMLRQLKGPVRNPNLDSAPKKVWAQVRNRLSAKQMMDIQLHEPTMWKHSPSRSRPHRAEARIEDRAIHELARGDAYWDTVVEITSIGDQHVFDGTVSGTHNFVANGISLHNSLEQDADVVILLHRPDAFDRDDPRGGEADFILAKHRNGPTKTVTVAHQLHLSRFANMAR
The experiment in a line: DnaB intein splicing inhibitors, dose response, biochemical, cell-free fluorescence (AID 449749). In kind it is functional.

The next experiment deals with T3, Cytochrome P450 1A2 (Homo sapiens, UniProt P05177).
T3 sequence (P05177 whole entry): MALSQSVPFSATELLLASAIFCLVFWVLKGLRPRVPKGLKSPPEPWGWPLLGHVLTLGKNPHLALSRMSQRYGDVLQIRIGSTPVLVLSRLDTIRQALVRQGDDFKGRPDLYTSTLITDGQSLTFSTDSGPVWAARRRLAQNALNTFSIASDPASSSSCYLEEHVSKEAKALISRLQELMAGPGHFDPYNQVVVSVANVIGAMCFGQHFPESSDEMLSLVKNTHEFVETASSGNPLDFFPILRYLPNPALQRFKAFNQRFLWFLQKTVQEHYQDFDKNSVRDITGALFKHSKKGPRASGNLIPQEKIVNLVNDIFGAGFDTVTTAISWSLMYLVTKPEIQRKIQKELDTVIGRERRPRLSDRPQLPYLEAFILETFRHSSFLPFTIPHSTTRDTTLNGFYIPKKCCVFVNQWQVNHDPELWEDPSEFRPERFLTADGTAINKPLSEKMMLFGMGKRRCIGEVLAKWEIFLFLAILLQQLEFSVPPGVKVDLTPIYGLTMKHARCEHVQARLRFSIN

The target of the next experiment is Cytochrome P450 2C19 (Homo sapiens, UniProt P33261). The experiment in a line: Cytochrome panel assay with activity outcomes. Panel member name: p450-cyp2c19 Compounds with AC50 equal or less than 10 uM are considered active. The note with it: read-out: AC50. Type of experiment: functional.
Cytochrome P450 2C19, sequence (P33261 whole entry): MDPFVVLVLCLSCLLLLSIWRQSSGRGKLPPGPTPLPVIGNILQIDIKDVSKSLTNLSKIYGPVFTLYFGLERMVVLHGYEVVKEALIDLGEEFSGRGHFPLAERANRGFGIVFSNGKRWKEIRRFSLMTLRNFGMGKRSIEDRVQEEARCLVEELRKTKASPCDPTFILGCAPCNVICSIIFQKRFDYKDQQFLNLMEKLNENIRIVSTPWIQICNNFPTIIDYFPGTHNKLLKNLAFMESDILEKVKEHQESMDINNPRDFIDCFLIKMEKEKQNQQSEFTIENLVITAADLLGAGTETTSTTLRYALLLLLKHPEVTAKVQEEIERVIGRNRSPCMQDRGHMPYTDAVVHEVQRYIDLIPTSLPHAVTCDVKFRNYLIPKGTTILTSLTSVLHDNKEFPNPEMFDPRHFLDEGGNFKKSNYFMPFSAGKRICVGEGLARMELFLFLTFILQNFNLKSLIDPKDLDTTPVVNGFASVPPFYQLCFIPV
Experiment [6] has as its target T4, Corticotropin-releasing factor receptor 2/Corticotropin-releasing factor-binding protein (Homo sapiens, UniProt P24387+Q13324).
T4 sequence (Q13324 whole entry): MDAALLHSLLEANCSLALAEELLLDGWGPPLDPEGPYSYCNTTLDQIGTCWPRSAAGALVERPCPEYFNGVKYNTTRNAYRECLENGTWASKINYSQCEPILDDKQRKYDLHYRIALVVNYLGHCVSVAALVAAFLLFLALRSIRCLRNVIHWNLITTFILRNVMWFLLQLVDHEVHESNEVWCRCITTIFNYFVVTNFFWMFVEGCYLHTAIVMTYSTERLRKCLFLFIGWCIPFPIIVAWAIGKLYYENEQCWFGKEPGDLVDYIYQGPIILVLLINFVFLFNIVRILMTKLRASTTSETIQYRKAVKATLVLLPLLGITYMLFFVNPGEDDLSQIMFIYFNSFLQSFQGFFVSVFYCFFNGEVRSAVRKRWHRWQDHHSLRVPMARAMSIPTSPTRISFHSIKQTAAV
T4 sequence (P24387 whole entry): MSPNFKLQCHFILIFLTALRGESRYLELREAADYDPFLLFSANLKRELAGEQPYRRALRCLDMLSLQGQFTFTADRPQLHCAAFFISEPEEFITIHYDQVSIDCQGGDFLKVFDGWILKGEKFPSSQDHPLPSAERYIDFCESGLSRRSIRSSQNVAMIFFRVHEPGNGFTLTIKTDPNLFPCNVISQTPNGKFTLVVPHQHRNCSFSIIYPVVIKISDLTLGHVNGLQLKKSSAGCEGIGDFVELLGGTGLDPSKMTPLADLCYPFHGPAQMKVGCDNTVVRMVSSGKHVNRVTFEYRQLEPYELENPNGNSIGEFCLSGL
Description: activators of CRF receptor 2 with binding protein – uHTS hits, confirmation (AID 602473). Conditions: read-out: EC50_Mean. Type of experiment: functional.

Each structure is given as a SMILES string. Active and inactive are the calls of the source.

A word on the AC50: it is the midpoint of the concentration-response curve, whichever way the signal moves.

In the case of `Cn1c(-c2ccccc2)cc2c3no[n+]([O-])c3ccc21`, the EC50 was 8.01 µM (active) in experiment [1] and 0.707 µM (active) in experiment [2]. For the same compound, the AC50 in the experiment on INS1 was 2.09 µM (active).

Regarding `Cc1nnc(SCC2=C(C(=O)O)N3C(=O)C(NC(=O)Cn4nc(C)c(Cl)c4C)C3SC2)s1` (centres undefined), the EC50 with Streptococcus is 0.115 µM (active); in experiment [3] it was < 0.06 µM (active).

In the case of `COC(=O)c1cccc(NC(S)=NCc2ccc(Cl)cc2)c1`, the EC50 was 15.8 µM (active) in the experiment with Streptococcus and 13 µM (active) in experiment [3].

Turning to `CCc1c(C)sc(NC(=O)/C=C/c2ccc3c(c2)OCO3)c1C(=O)OC`, the AC50 in experiment [4] is 0.768 µM (active).

`CC1(C)C(C=C(Cl)Cl)C1C(=O)Nc1ccc([N+](=O)[O-])cc1` (centres undefined): the AC50 in the experiment on INS1 is 7.67 µM (active).

For the compound `O=C(NCC(c1cccs1)N1CCOCC1)c1ccc(Cl)s1` (centres undefined), the concentration at half-maximal activity (AC50) in [4] was 2.89 µM (active).

On to `CCc1ccc(-n2c(C)cc(/C=N/NC(=O)c3ccncc3)c2C)cc1`, for which the half-maximal activity concentration (AC50) in the experiment on INS1 was 14.9 µM (active).

With `c1ccc(CCNCc2cccs2)cc1`, the EC50 at Protein RecA is > 380 µM (inactive). Moreover, the AC50 in [5] is > 380 µM (inactive).

`O=C(C[n+]1ccccc1)NNc1ccccc1`: the half-maximal activity concentration (AC50) in experiment [4] was 1.47 µM (active).

Turning to `COc1ccc(/C=C/C(=O)c2ccncc2)c2ccccc12`, the EC50 on Protein RecA is 8.84 µM (active). Also, the AC50 is > 120 µM (inactive) in experiment [5], 11.8 µM (active) in experiment [4] and 26.7 µM (active) with INS1.

`CCOCCCNC(=O)c1cnc2cc(OC)ccc2c1O`: the AC50 in the experiment with INS1 was > 260 µM (inactive).

Regarding `Cc1c(C)n(O)c2ccc3nonc3c12`, the EC50 on Protein RecA was 3.67 µM (active). For the same compound, in experiment [5], the AC50 was > 380 µM (inactive).

Regarding `Cc1ccc(Sc2oc(/C=N/n3cnnc3)cc2Br)cc1`, at Protein RecA, the EC50 is 9.82 µM (active). Besides, the AC50 in experiment [5] is 4.42 µM (active).

For the compound `COc1ccc(-c2nn(-c3ccccc3)cc2/C=N/Nc2ccc3ccccc3n2)cc1OC`, in the experiment with INS1, the AC50 is 1.5 µM (active).

With `Clc1ccc(C2=C3CCCCn4c(-c5ccccc5)c[n+](c43)C2)cc1`, the half-maximal activity concentration (AC50) on Cytochrome P450 1A2 was 12.6 µM (inconclusive); in experiment [5], > 380 µM (inactive); on Cytochrome P450 2C19, 1.12 µM (inconclusive). Moreover, the EC50 on Protein RecA was 50 µM (active).

In the case of `Cc1ccccc1NS(=O)(=O)c1cc2c(cc1C)NC(=O)CO2`, in experiment [6], the EC50 is > 53 µM (inactive).

Take `COc1cc([N+](=O)[O-])ccc1NC(=O)CC1S/C(=N\c2ccc(F)cc2)N(CCC2=CCCCC2)C1=O` (centres undefined): the AC50 with INS1 is 4.29 µM (active).

For the compound `Cc1ccc(C(c2c(C)n[nH]c2O)c2c(C)n[nH]c2O)cc1`, at Protein RecA, the EC50 is 0.248 µM (active). Moreover, the AC50 in experiment [5] is 0.36 µM (active).

Regarding `C=C(C)C(=O)NC1=NN(c2ccccc2)C(=O)C1`, the EC50 on Protein RecA is 37 µM (active). The AC50 in experiment [5] is 3.66 µM (active).

With `CC(=O)Nc1ccc(C2=CC(=O)C[C@H](c3ccc4c(c3)OCO4)C2)cc1`, in the experiment with INS1, the AC50 was > 260 µM (inactive).

With `COc1ccc(OC)c(-c2cc(-c3cccnc3)nc(N)c2C#N)c1`, in experiment [4], the concentration at half-maximal activity (AC50) was 0.766 µM (active).

`CCOC(=O)c1ccc(Nc2cc(C)nc(-c3ccccc3)n2)cc1`: in experiment [4], the AC50 is 2.1 µM (active).

For `CC1=NNC(=O)C1Cc1ccccc1C` (centres undefined), the EC50 on Protein RecA was 0.329 µM (active). Also, the AC50 in experiment [5] was 0.538 µM (active).

In the case of `NNc1ncnc2scc(-c3ccc(Cl)cc3)c12`, the concentration at half-maximal activity (AC50) in the experiment with INS1 was 6.34 µM (active).

Take `CC(C)c1n[nH]c2c1C(c1ccc(OC(=O)c3ccco3)cc1)C(C#N)=C(N)O2` (centres undefined): the EC50 on Protein RecA is 3.02 µM (active). For the same compound, in [5], the AC50 was 6.85 µM (active).

On to `Cc1ccc(/N=C2\C(Cl)=C(O)OC2OC(=O)c2ccco2)cc1C` (centres undefined), for which the EC50 on Protein RecA is 8.65 µM (active). Moreover, in experiment [5], the AC50 was 11.5 µM (active).
